From PubChem BioAssay AID248 (DTP/NCI, 2004)
Where “and” joins values, the source holds several entries; their conditions need not be identical. Equal entries are not always repeated. Toxic doses and inconclusive results are not listed. Cut-off read from the data, not from the text of the source: active = T/C of 150% or more; inactive = T/C below 125%.

Tested on: L1210 leukemia ip in BDF1 mice, survival T/C
Test: NCI In Vivo Anticancer Drug Screen. Data for tumor model L1210 Leukemia (intraperitoneal) in B6D2F1 (BDF1) mice
Details: endpoint: mean survival time, higher = longer survival
How it was run: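 Survival endpoint. Drug-treated group vs vehicle group, expressed as T divided by C. Tumor passaged by transplantation.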

[1] = dose: 100.0 mg/kg/injection, schedule: Q01DX009 (ip), vehicle: saline with Tween-80
[2] = dose: 100.0 mg/kg/injection, schedule: Q04DX002 (ip), vehicle: saline with Tween-80
[3] = dose: 100.0 mg/kg/injection, schedule: Q04DX003 (ip), vehicle: saline with Tween-80
[4] = dose: 200.0 mg/kg/injection, schedule: Q01DX009 (ip), vehicle: saline with Tween-80
[5] = dose: 200.0 mg/kg/injection, schedule: Q04DX002 (ip), vehicle: saline with Tween-80
[6] = dose: 200.0 mg/kg/injection, schedule: Q04DX003 (ip), vehicle: saline with Tween-80
[7] = dose: 400.0 mg/kg/injection, schedule: Q01DX009 (ip), vehicle: saline with Tween-80
[8] = dose: 400.0 mg/kg/injection, schedule: Q04DX002 (ip), vehicle: saline with Tween-80
[9] = dose: 400.0 mg/kg/injection, schedule: Q04DX003 (ip), vehicle: saline with Tween-80
[10] = dose: 100.0 mg/kg/injection, schedule: Q01DX001 (ip), vehicle: saline
[11] = dose: 200.0 mg/kg/injection, schedule: Q01DX001 (ip), vehicle: saline
[12] = dose: 400.0 mg/kg/injection, schedule: Q01DX001 (ip), vehicle: saline
[13] = dose: 100.0 mg/kg/injection, schedule: Q04DX003 (ip), vehicle: saline
[14] = dose: 100.0 mg/kg/injection, schedule: Q01DX001 (ip), vehicle: carboxymethylcellulose (CMC)
[15] = dose: 200.0 mg/kg/injection, schedule: Q01DX001 (ip), vehicle: carboxymethylcellulose (CMC)
[16] = dose: 400.0 mg/kg/injection, schedule: Q01DX001 (ip), vehicle: carboxymethylcellulose (CMC)

Measured: T/C

COc1cccc(C(O)c2cnc(C)n2Cc2ccccc2)c1 (stereo unspecified)
inactive: dose: 100.0 mg/kg/injection, schedule: Q01DX001 (ip), vehicle: saline with Tween-80 94 % of control | [1] 93 % of control and 107 % of control | [2] 97 % of control and 100 % of control | [3] 101 % of control | dose: 200.0 mg/kg/injection, schedule: Q01DX001 (ip), vehicle: saline with Tween-80 100 % of control | [4] 98 % of control and 99 % of control | [5] 102 % of control and 107 % of control | [6] 93 % of control | dose: 400.0 mg/kg/injection, schedule: Q01DX001 (ip), vehicle: saline with Tween-80 103 % of control | [7] 98 % of control and 108 % of control | [8] 105 % of control and 88 % of control | [9] 98 % of control

NC(=O)C[n+]1ccccc1
inactive: [10] 106 % of control | [11] 98 % of control | [12] 97 % of control

CNC(C)Cc1ccc2c(c1)OCO2 (stereo unspecified)
inactive: dose: 12.5 mg/kg/injection, schedule: Q01DX009 (ip), vehicle: saline 105 % of control | dose: 25.0 mg/kg/injection, schedule: Q01DX009 (ip), vehicle: saline 98 % of control | dose: 25.0 mg/kg/injection, schedule: Q04DX003 (ip), vehicle: saline 106 % of control | dose: 50.0 mg/kg/injection, schedule: Q01DX009 (ip), vehicle: saline 100 % of control and 104 % of control | dose: 50.0 mg/kg/injection, schedule: Q04DX003 (ip), vehicle: saline 104 % of control | dose: 75.0 mg/kg/injection, schedule: Q04DX003 (ip), vehicle: saline 92 % of control | [13] 98 % of control

OC(CCl)COc1ccccc1 (stereo unspecified)
inactive: dose: 100.0 mg/kg/injection, schedule: Q01DX009 (sc), vehicle: olive oil, sesame oil, peanut oil 91 % of control | dose: 100.0 mg/kg/injection, schedule: Q04DX002 (sc), vehicle: olive oil, sesame oil, peanut oil 101 % of control | dose: 200.0 mg/kg/injection, schedule: Q01DX009 (sc), vehicle: olive oil, sesame oil, peanut oil 105 % of control | dose: 200.0 mg/kg/injection, schedule: Q04DX002 (sc), vehicle: olive oil, sesame oil, peanut oil 104 % of control | dose: 400.0 mg/kg/injection, schedule: Q01DX009 (sc), vehicle: olive oil, sesame oil, peanut oil 94 % of control | dose: 400.0 mg/kg/injection, schedule: Q04DX002 (sc), vehicle: olive oil, sesame oil, peanut oil 96 % of control

Cc1ccc(C(=O)C=Nc2ccc(Br)cc2)cc1
inactive: dose: 100.0 mg/kg/injection, schedule: Q01DX001 (ip), vehicle: Klucel (hydroxypropylcellulose) (HPC) 104 % of control | dose: 200.0 mg/kg/injection, schedule: Q01DX001 (ip), vehicle: Klucel (hydroxypropylcellulose) (HPC) 95 % of control | dose: 400.0 mg/kg/injection, schedule: Q01DX001 (ip), vehicle: Klucel (hydroxypropylcellulose) (HPC) 112 % of control

COC(=O)c1cc(C)cc(Oc2ccccc2N)c1C
inactive: [10] 88 % of control | [11] 102 % of control | [12] 93 % of control

c1cc(OCCN2CC2)ccn1
inactive: dose: 12.5 mg/kg/injection, schedule: Q01DX001 (ip), vehicle: carboxymethylcellulose (CMC) 98 % of control | dose: 25.0 mg/kg/injection, schedule: Q01DX001 (ip), vehicle: carboxymethylcellulose (CMC) 108 % of control

Cc1ccc(NS(=O)(=O)c2ccccc2)nc1
inactive: [1] 96 % of control | [3] 99 % of control | [4] 98 % of control | [6] 93 % of control | [7] 98 % of control | [9] 96 % of control

Cc1cc(N(CCCl)CCCl)ccc1C=Nc1cccc2ncccc12
inactive: dose: 100.0 mg/kg/injection, schedule: Q01DX001 (ip), vehicle: other 95 % of control | dose: 200.0 mg/kg/injection, schedule: Q01DX001 (ip), vehicle: other 97 % of control | dose: 400.0 mg/kg/injection, schedule: Q01DX001 (ip), vehicle: other 93 % of control

O=C1CCCc2ccc([N+](=O)[O-])cc21
inactive: [13] 96 % of control | dose: 200.0 mg/kg/injection, schedule: Q04DX003 (ip), vehicle: saline 87 % of control

CC(OC(=O)CF)C(C)OC(=O)CF (stereo unspecified)
inactive: dose: 0.5 mg/kg/injection, schedule: Q01DX001 (ip), vehicle: carboxymethylcellulose (CMC) 110 % of control | dose: 1.0 mg/kg/injection, schedule: Q01DX001 (ip), vehicle: carboxymethylcellulose (CMC) 94 % of control | dose: 2.0 mg/kg/injection, schedule: Q01DX001 (ip), vehicle: carboxymethylcellulose (CMC) 108 % of control | dose: 4.0 mg/kg/injection, schedule: Q01DX001 (ip), vehicle: carboxymethylcellulose (CMC) 100 % of control | dose: 8.0 mg/kg/injection, schedule: Q01DX001 (ip), vehicle: carboxymethylcellulose (CMC) 108 % of control

CCCCCCCC/C=N/Nc1nnc(N/N=C/CCCCCCCC)c2ccccc12
inactive: dose: 50.0 mg/kg/injection, schedule: Q01DX001 (ip), vehicle: carboxymethylcellulose (CMC) 108 % of control | [14] 114 % of control | dose: 177.0 mg/kg/injection, schedule: Q01DX001 (ip), vehicle: carboxymethylcellulose (CMC) 93 % of control and 111 % of control | [15] 114 % of control | dose: 266.0 mg/kg/injection, schedule: Q01DX001 (ip), vehicle: carboxymethylcellulose (CMC) 119 % of control | [16] 102 % of control | dose: 600.0 mg/kg/injection, schedule: Q01DX001 (ip), vehicle: carboxymethylcellulose (CMC) 101 % of control

Cl[Si](c1ccccc1)(c1ccccc1)c1ccc([Si](Cl)(c2ccccc2)c2ccccc2)cc1
inactive: [2] 87 % of control | [5] 92 % of control | [8] 96 % of control

COc1ccc(O)c(C2(O)OC(=O)c3c(OC)cccc32)c1 (stereo unspecified)
inactive: [14] 103 % of control and 111 % of control | dose: 100.0 mg/kg/injection, schedule: Q01DX009 (ip), vehicle: carboxymethylcellulose (CMC) 100 % of control and 89 % of control | dose: 100.0 mg/kg/injection, schedule: Q04DX002 (ip), vehicle: carboxymethylcellulose (CMC) 102 % of control and 113 % of control | dose: 100.0 mg/kg/injection, schedule: Q04DX003 (ip), vehicle: carboxymethylcellulose (CMC) 95 % of control and 100 % of control | [15] 94 % of control and 106 % of control | dose: 200.0 mg/kg/injection, schedule: Q01DX009 (ip), vehicle: carboxymethylcellulose (CMC) 104 % of control and 89 % of control | dose: 200.0 mg/kg/injection, schedule: Q04DX002 (ip), vehicle: carboxymethylcellulose (CMC) 97 % of control | dose: 200.0 mg/kg/injection, schedule: Q04DX003 (ip), vehicle: carboxymethylcellulose (CMC) 94 % of control and 100 % of control | [16] 94 % of control and 103 % of control | dose: 400.0 mg/kg/injection, schedule: Q04DX002 (ip), vehicle: carboxymethylcellulose (CMC) 97 % of control and 98 % of control | dose: 400.0 mg/kg/injection, schedule: Q04DX003 (ip), vehicle: carboxymethylcellulose (CMC) 95 % of control and 90 % of control

COc1cc(OC)c(NC(=O)c2ccc([N+](=O)[O-])s2)cc1Cl
inactive: dose: 50.0 mg/kg/injection, schedule: Q01DX005 (ip), vehicle: saline 94 % of control | dose: 100.0 mg/kg/injection, schedule: Q01DX005 (ip), vehicle: saline 94 % of control | dose: 200.0 mg/kg/injection, schedule: Q01DX005 (ip), vehicle: saline 94 % of control
